{
  "source": "patent US8202875B2",
  "about": "“Selective insecticides based on substituted cyclic ketoenols and safeners” (Bayer Cropscience AG, priority 2004, dated 2012)",
  "format_in_all_cases": "in vivo",
  "key": {"[1]": {"tested_on": "grain aphid (Metopolophium dirhodum)", "test": "Metopolophium dirhodum test, spray application on barley plants", "text": "(§1) The expected activity of a given combination of two active compounds can be calculated as follows (cf. Colby, S. R., “Calculating Synergistic and Antagonistic Responses of Herbicide Combinations”, Weeds 15, pages 20-22, 1967):\n(§2) • X is the kill rate expressed in % of the untreated control when employing active compound A at an application rate of m ppm, • Y is the kill rate expressed in % of the untreated control when employing active compound B at an application rate of n ppm, • E is the kill rate expressed in % of the untreated control when using the active compounds A and B at application rates of m and n ppm,\n(§3) If the actual insecticidal kill rate exceeds the calculated value, the kill of the combination is superadditive, i.e. a synergistic effect is present. In this case, the actually observed kill rate must exceed the value calculated using the above formula for the expected kill rate (E).\n(§4) Adjuvant: rapeseed oil methyl ester (0.1% of a.i./l)\n(§5) To prepare a suitable application solution, 1 part by weight of formulation is mixed with the appropriate amount of water and the adjuvant and the concentrate is diluted with water to the desired concentration. […]\n(§6) After the desired period of time, the kill in % is determined. […] The determined kill rates are entered in Colby's formula."}, "[2]": {"tested_on": "cotton aphid (Aphis gossypii)", "test": "Aphis gossypii test, spray application on cotton plants", "conditions": "100 ppm", "text": "as §1, §2, §3, §4, §5, §6"}, "[3]": {"tested_on": "green peach aphid (Myzus persicae)", "test": "Myzus persicae test, spray application on bell pepper plants", "text": "as §1, §2, §3, §4\nTo prepare a suitable application solution, 1 part by weight of formulation is mixed with the appropriate amount of water and the adjuvant and the concentrate is diluted with water to the desired concentration.\nBell pepper plants (Capsicum sativum) which are heavily infested by the green peach aphid (Myzus persicae) are sprayed to runoff point with the desired concentration of the application solution.\nAfter the desired period of time, the kill in % is determined. 100% means that all aphids have been killed; 0% means that none of the aphids have been killed. The determined kill rates are entered in Colby's formula."}, "[4]": {"tested_on": "winter barley", "test": "Safener test after spraying: plant damage to barley (greenhouse)", "conditions": "100 g of a.i./ha", "description": "(§7) Method: Safener test after spraying\n(§8) Solvent: 7 parts by weight of DMF\n(§9) Emulsifier: 2 parts by weight of alkylaryl polyglycol ether\n(§10) To produce a suitable preparation of active compound, 1 part by weight of active compound is mixed with the stated amounts of solvent and emulsifier, and the concentrate is diluted with tap water to the desired concentration. The desired amount of safener (in the case of mefenpyr-diethyl as WP 20) is mixed into the water used for dilution. Furthermore, 2 g of a.i./l of rapeseed oil methyl ester 500 EW are added. Leaves of winter barley at the 2-leaf stage which are infested by the bird cherry-oat aphid (Rhopalosiphum padi) are treated with the desired active compound and safener concentrations using a spray boom, the water application rate being […]. Per variant, the test is carried out at least twice. Evaluation is carried out after 7 d and/or 14 d by assessing the plant damage in % and the kill of the grain aphids in % compared to the untreated control. 100% damage means that the plant has died, and 0% means no damage. 100% effect on the grain aphids means that all aphids have been killed; 0% means that none of the aphids have been killed.\n(§11) Results for greenhouse trials with safener after spraying against Rhopalosiphum padi on summer barley/winter barley"}, "[5]": {"tested_on": "bird cherry-oat aphid (Rhopalosiphum padi)", "test": "Safener test after spraying: kill of aphids on barley (greenhouse)", "conditions": "100 g of a.i./ha, barley at 2-leaf stage, spray boom", "description": "as §7, §8, §9, §10, §11"}},
  "data": [
    {"smiles": "C=CCN(CC=C)C(=O)C(Cl)Cl", "note": "[Dichlormid a.i., 2,2-dichloro-N,N-di-2-propenyl-acetamide]", "values": [
      {"measurement": "Kill rate in % after 7 d, found", "setting": "[1]; 100 ppm", "result": 0, "unit": "%"},
      {"measurement": "Kill rate in % after 7 d, found", "setting": "[2]", "result": 0, "unit": "%"},
      {"measurement": "Kill rate in % after 7 d, found", "setting": "[3]; 100 ppm", "result": 0, "unit": "%"}
    ]},
    {"smiles": "CCOC(=O)C1=NN(c2ccc(Cl)cc2Cl)C(C)(C(=O)OCC)C1", "note": "(centres unmarked) [mefenpyr-diethyl, diethyl 1-(2,4-dichloro-phenyl)-4,5-dihydro-5-methyl-1H-pyrazole-3,5-dicarboxylate]", "values": [
      {"measurement": "Damage to new growth (%) 7 d", "setting": "[4]; 7 d", "result": 0, "unit": "%"},
      {"measurement": "Damage (%) 7 d", "setting": "[4]; 7 d, 100% = plant has died", "result": 0, "unit": "%"},
      {"measurement": "Damage to new growth (%) 14 d", "setting": "[4]; 14 d", "result": 0, "unit": "%"},
      {"measurement": "Damage (%) 14 d", "setting": "[4]; 14 d, 100% = plant has died", "result": 0, "unit": "%"},
      {"measurement": "Kill (%) 7 d", "setting": "[5]", "result": 0, "unit": "%"}
    ]},
    {"smiles": "Clc1cc(Cl)nc(-c2ccccc2)n1", "note": "[Fenclorim a.i., 4,6-dichloro-2-phenyl-pyrimidine]", "values": [
      {"measurement": "Kill rate in % after 7 d, found", "setting": "[1]; 25 ppm", "result": 0, "unit": "%"},
      {"measurement": "Kill rate in % after 7 d, found", "setting": "[3]; 50 ppm", "result": 0, "unit": "%"}
    ]},
    {"smiles": "CC1(C)OC(c2ccco2)CN1C(=O)C(Cl)Cl", "note": "(centres unmarked) [Furilazole a.i., 3-dichloroacetyl-5-(2-furanyl)-2,2-dimethyl-oxazolidine]", "values": [
      {"measurement": "Kill rate in % after 7 d, found", "setting": "[3]; 50 ppm", "result": 0, "unit": "%"}
    ]}
  ]
}
